{
  "source": "patent US12409172B2",
  "about": "“Dosage regimen” (UNION therapeutics A/S, priority 2023, dated 2025)",
  "tested_on": "cytokines in psoriatic lesional skin",
  "assay": "Skin tape strip biomarkers (Olink Target 96 Inflammation panel) in the phase 2b psoriasis study (Example 10)",
  "assay_type": "in vivo, human",
  "details": "for log2FCH W16_L - BL_L, CCL3 / log2FCH W16_L - BL_L, CCL4 / log2FCH W16_L - BL_L, CCL20 / log2FCH W16_L - BL_L, CSF1 / log2FCH W16_L - BL_L, CXCL1 / log2FCH W16_L - BL_L, CXCL5 / log2FCH W16_L - BL_L, CXCL6 / log2FCH W16_L - BL_L, CXCL9 / log2FCH W16_L - BL_L, CXCL10 / log2FCH W16_L - BL_L, IFNγ / log2FCH W16_L - BL_L, IL8 / log2FCH W16_L - BL_L, IL12B / log2FCH W16_L - BL_L, IL17A / log2FCH W16_L - BL_L, IL18 / log2FCH W16_L - BL_L, IL18R1 / log2FCH W16_L - BL_L, IL. 17C / log2FCH W16_L - BL_L, MMP1 / log2FCH W16_L - BL_L, TNFRSF9 / log2FCH W16_L - BL_L, TNFSF14 / log2FCH W16_L - BL_L, TNFα / log2FCH W16_L - BL_L, TRAIL: Week 16 lesional vs baseline lesional skin",
  "from_the_text": "Skin tape strip samples were taken from lesional and non-lesional skin at baseline and lesional skin at week 16 of patients participating in the phase 2b, dose-ranging study assessing oral modified release orismilast in adults with moderate-to-severe plaque psoriasis (NCT05190419) described in Example 3. Approximately twenty consecutive stratum corneum samples were collected from the same skin site by tape stripping (D-squames; Monaderm DS100) of both lesional and non-lesional skin at baseline and lesional skin at week 16. To extract the proteins from the tapes the first ten tapes were pooled together and used for subsequent protein extraction by incubation in 800 μL of PBS containing 0.2% Triton X-100 together with a mixture of protease inhibitors and incubated overnight at 4° C. under stirring at 1400 rpm in a thermo mixer (Eppendorf). The insoluble material was removed by filtration on 0.22 μm filters by centrifugation. The protein extracts were analyzed using the Olink® technology (Target 96 Inflammation panel). Protein extracts from patients treated with placebo, 20 mg orismilast BID, and 30 mg orismilast BID as described in Example 3 were analyzed.\nOLINK data was analyzed in R 2023.09.0+463 using a linear mixed effect model (OlinkAnalyse and Ime4) to estimate log 2 fold changes between Week 16 lesional skin versus baseline lesional skin and baseline lesional versus baseline non-lesional skin levels. P-values were corrected for multiple testing using the Benjamini-Hochberg method. The data was further modeled according to a weight-based dosing regimen in which data of the 20 mg Orismilast BID arm was used for patients with a bodyweight at baseline of <100 kg and combined with using data of the 30 mg Orismilast BID arm for patients ≥100 kg, respectively (named “P3DR”).",
  "key": {"[1]": {"details": "P3DR (20 mg <100 kg and 30 mg >=100 kg combined)"}},
  "note": "Marks after values point to notes of the source that are not given here.",
  "data": [
    {"smiles": "O=C(Cc1c(Cl)c[n+]([O-])cc1Cl)c1ccc(OC(F)F)c2c1OC1(CCS(=O)(=O)CC1)O2", "note": "[orismilast, 2-(3,5-dichloro-1-oxidopyridin-1-ium-4-yl)-1-[7-(difluoromethoxy)-1′,1′-dioxospiro[1,3-benzodioxole-2,4′-thiane]-4-yl]ethanone]", "values": [
      {"measurement": "log2FCH W16_L - BL_L, CCL3", "setting": "20 mg BID", "result": "−2.68 ***"},
      {"measurement": "log2FCH W16_L - BL_L, CCL4", "setting": "20 mg BID", "result": "−2.46 ***"},
      {"measurement": "log2FCH W16_L - BL_L, CCL20", "setting": "20 mg BID", "result": "−2.53 ***"},
      {"measurement": "log2FCH W16_L - BL_L, CSF1", "setting": "20 mg BID", "result": "−1.35 **"},
      {"measurement": "log2FCH W16_L - BL_L, CXCL1", "setting": "20 mg BID", "result": "−1.83 *"},
      {"measurement": "log2FCH W16_L - BL_L, CXCL5", "setting": "20 mg BID", "result": "−1.67 **"},
      {"measurement": "log2FCH W16_L - BL_L, CXCL6", "setting": "20 mg BID", "result": "−2.34 ***"},
      {"measurement": "log2FCH W16_L - BL_L, CXCL9", "setting": "20 mg BID", "result": "−2.40 ***"},
      {"measurement": "log2FCH W16_L - BL_L, CXCL10", "setting": "20 mg BID", "result": "−2.20 ***"},
      {"measurement": "log2FCH W16_L - BL_L, IFNγ", "setting": "20 mg BID", "result": "−1.21 *"},
      {"measurement": "log2FCH W16_L - BL_L, IL8", "setting": "20 mg BID", "result": "−1.82 *"},
      {"measurement": "log2FCH W16_L - BL_L, IL12B", "setting": "20 mg BID", "result": "−2.21 **"},
      {"measurement": "log2FCH W16_L - BL_L, IL17A", "setting": "20 mg BID", "result": "−2.19 ***"},
      {"measurement": "log2FCH W16_L - BL_L, IL18", "setting": "20 mg BID", "result": "−2.10 **"},
      {"measurement": "log2FCH W16_L - BL_L, IL18R1", "setting": "20 mg BID", "result": "−1.25 **"},
      {"measurement": "log2FCH W16_L - BL_L, IL. 17C", "setting": "20 mg BID", "result": "−2.49 ***"},
      {"measurement": "log2FCH W16_L - BL_L, MMP1", "setting": "20 mg BID", "result": "−2.41 **"},
      {"measurement": "log2FCH W16_L - BL_L, TNFRSF9", "setting": "20 mg BID", "result": "−1.45 ***"},
      {"measurement": "log2FCH W16_L - BL_L, TNFSF14", "setting": "20 mg BID", "result": "−1.38 *"},
      {"measurement": "log2FCH W16_L - BL_L, TNFα", "setting": "20 mg BID", "result": "−1.92 ***"},
      {"measurement": "log2FCH W16_L - BL_L, TRAIL", "setting": "20 mg BID", "result": "−1.40 **"},
      {"measurement": "log2FCH W16_L - BL_L, CCL3", "setting": "30 mg BID", "result": "−3.42 ***"},
      {"measurement": "log2FCH W16_L - BL_L, CCL4", "setting": "30 mg BID", "result": "−2.83 ***"},
      {"measurement": "log2FCH W16_L - BL_L, CCL20", "setting": "30 mg BID", "result": "−3.36 ***"},
      {"measurement": "log2FCH W16_L - BL_L, CSF1", "setting": "30 mg BID", "result": "−1.97 ***"},
      {"measurement": "log2FCH W16_L - BL_L, CXCL1", "setting": "30 mg BID", "result": "−2.84 ***"},
      {"measurement": "log2FCH W16_L - BL_L, CXCL5", "setting": "30 mg BID", "result": "−2.26 ***"},
      {"measurement": "log2FCH W16_L - BL_L, CXCL6", "setting": "30 mg BID", "result": "−3.15 ***"},
      {"measurement": "log2FCH W16_L - BL_L, CXCL9", "setting": "30 mg BID", "result": "−3.32 ***"},
      {"measurement": "log2FCH W16_L - BL_L, CXCL10", "setting": "30 mg BID", "result": "−2.89 ***"},
      {"measurement": "log2FCH W16_L - BL_L, IFNγ", "setting": "30 mg BID", "result": "−2.02 ***"},
      {"measurement": "log2FCH W16_L - BL_L, IL8", "setting": "30 mg BID", "result": "−2.76 ***"},
      {"measurement": "log2FCH W16_L - BL_L, IL12B", "setting": "30 mg BID", "result": "−3.38 ***"},
      {"measurement": "log2FCH W16_L - BL_L, IL17A", "setting": "30 mg BID", "result": "−2.66 ***"},
      {"measurement": "log2FCH W16_L - BL_L, IL18", "setting": "30 mg BID", "result": "−3.46 ***"},
      {"measurement": "log2FCH W16_L - BL_L, IL18R1", "setting": "30 mg BID", "result": "−1.99 ***"},
      {"measurement": "log2FCH W16_L - BL_L, IL. 17C", "setting": "30 mg BID", "result": "−3.39 ***"},
      {"measurement": "log2FCH W16_L - BL_L, MMP1", "setting": "30 mg BID", "result": "−3.30 ***"},
      {"measurement": "log2FCH W16_L - BL_L, TNFRSF9", "setting": "30 mg BID", "result": "−2.03 ***"},
      {"measurement": "log2FCH W16_L - BL_L, TNFSF14", "setting": "30 mg BID", "result": "−2.23 ***"},
      {"measurement": "log2FCH W16_L - BL_L, TNFα", "setting": "30 mg BID", "result": "−2.48 ***"},
      {"measurement": "log2FCH W16_L - BL_L, TRAIL", "setting": "30 mg BID", "result": "−2.04 ***"},
      {"measurement": "log2FCH W16_L - BL_L, CCL3", "setting": "[1]", "result": "−3.60 ***"},
      {"measurement": "log2FCH W16_L - BL_L, CCL4", "setting": "[1]", "result": "−3.14 ***"},
      {"measurement": "log2FCH W16_L - BL_L, CCL20", "setting": "[1]", "result": "−3.22 ***"},
      {"measurement": "log2FCH W16_L - BL_L, CSF1", "setting": "[1]", "result": "−1.86 ***"},
      {"measurement": "log2FCH W16_L - BL_L, CXCL1", "setting": "[1]", "result": "−2.34 ***"},
      {"measurement": "log2FCH W16_L - BL_L, CXCL5", "setting": "[1]", "result": "−2.25 ***"},
      {"measurement": "log2FCH W16_L - BL_L, CXCL6", "setting": "[1]", "result": "−3.02 ***"},
      {"measurement": "log2FCH W16_L - BL_L, CXCL9", "setting": "[1]", "result": "−3.24 ***"},
      {"measurement": "log2FCH W16_L - BL_L, CXCL10", "setting": "[1]", "result": "−2.94 ***"},
      {"measurement": "log2FCH W16_L - BL_L, IFNγ", "setting": "[1]", "result": "−1.91 ***"},
      {"measurement": "log2FCH W16_L - BL_L, IL8", "setting": "[1]", "result": "−2.42 ***"},
      {"measurement": "log2FCH W16_L - BL_L, IL12B", "setting": "[1]", "result": "−3.09 ***"},
      {"measurement": "log2FCH W16_L - BL_L, IL17A", "setting": "[1]", "result": "−2.66 ***"},
      {"measurement": "log2FCH W16_L - BL_L, IL18", "setting": "[1]", "result": "−2.96 ***"},
      {"measurement": "log2FCH W16_L - BL_L, IL18R1", "setting": "[1]", "result": "−1.83 ***"},
      {"measurement": "log2FCH W16_L - BL_L, IL. 17C", "setting": "[1]", "result": "−3.20 ***"},
      {"measurement": "log2FCH W16_L - BL_L, MMP1", "setting": "[1]", "result": "−3.31 ***"},
      {"measurement": "log2FCH W16_L - BL_L, TNFRSF9", "setting": "[1]", "result": "−1.98 ***"},
      {"measurement": "log2FCH W16_L - BL_L, TNFSF14", "setting": "[1]", "result": "−2.08 ***"},
      {"measurement": "log2FCH W16_L - BL_L, TNFα", "setting": "[1]", "result": "−2.50 ***"},
      {"measurement": "log2FCH W16_L - BL_L, TRAIL", "setting": "[1]", "result": "−1.91 ***"},
      {"measurement": "expression of key disease driving cytokines in psoriatic lesions", "setting": "oral orismilast for 16 weeks, 20 mg BID and 30 mg BID", "result": "significantly reduced"}
    ]}
  ]
}
